From patent publication US20030087830A1, “Low molecular weight components of cartilage, complexes of metals with amino acids, DI-peptides and analogs thereof; processes for preparation and therapeutic uses thereof” (priority 2001, published 2003)

Tests used:
[1] = test system: Lewis lung carcinoma clone M27; assay: Lewis Lung Carcinoma metastatic mouse model (LLC); assay type: in vivo, C57BL/10 female mice; details: 2.5 mg/kg, intraperitoneal daily for two weeks; lung surface metastases
Excerpt: The Lewis Lung Carcinoma mouse model (LLC) was used to determine the ability of different test samples to inhibit the formation of metastases within the lung. The Lewis lung carcinoma clone M27, with a high metastatic potential to the lung, was established by Dr P. Brodt (Brodt P, Characterization of two highly metastatic variants of Lewis lung carcinoma with different organ specificities. Cancer Res., 46: 2442, 1986). This model is well established and is known for its predictive correlation between in vitro and in vivo activity. Briefly, LLC cells were transplanted subcutaneously in the axillary region of the right flank of C57BL/10 female mice (Charles River Inc.) When the primary tumor reached a size of 0.5-1.0 cm^3 (day 10 post-inoculation), the tumor was carefully separated from the surrounding healthy tissues. Treatment with different test samples started the day following tumor removal (day 11 post-inoculation). Saline or different test samples were administered daily for two weeks by intraperitoneal injection (0.2 ml of each dose). As previous experiments had shown that a period of approximately two weeks after removal of the primary tumor was sufficient to obtain an average of 30 to 50 nodules on the lung surface, animals were sacrificed in a CO2 chamber two weeks later. Following autopsy, both lungs were removed, weighed and fixed in 10% Bouin's fixative. Lung surface metastases were counted using a stereomicroscope (4×).

C6 glioblastoma cells = assay: C6 glioblastoma cell proliferation; assay type: cell-based, rat; details: 48 hours; free amino acids and Glu-Trp 2.5 mM, CuCl2 1.25 mM
Method: Endothelial and tumor cell proliferation assays were performed to determine the ability of test samples to inhibit endothelial cell proliferation (antiangiogenic activity), normal cell proliferation,and tumor cell proliferation.
Endothelial cells (Human umbilical vein endothelial cells (HUVEC), bovine aortic endothelial cells (BAEC)), skeletal muscle cells, human dermal fibroblasts (all from Clonetics, Walkersville, Md.) were respectively maintained in EBM-2, MDEM, SKGM and FGFM-2 complete media according to manufacturer's instructions. Tumor rat glioblastoma cell line (C6) was maintained in DMEM (Sigma, Oaksville, Ontario) supplemented with 10% fetal calf serum (FCS) and antibiotics in 5% CO2. Briefly, cells seeded in 96-well sterile tissue culture dishes were treated with increasing concentrations of different test samples for a period of 48 hours at 37° C. Cell number was then evaluated by a calorimetric assay using the cell proliferation reagent tetrazolium salt and the fluorimetric assay using DNA dye (Hoescht) according to the procedure established by the manufacturer (Boehringer Mannhein). The conversion of these tetrazolium salts into formazan occurs only in metabolically active cells. The percentage of cell inhibition was determined by comparison to untreated cells.

Endothelial cells = assay: Endothelial cell migration assay (VEGF, modified Boyden chamber); assay type: cell-based
Method: The endothelial cell migration assay was performed to determine the ability of test samples to inhibit the chemotaxic activity of vascular endothelial growth factor (VEGF;R/D System, MN) using a modified Boyden chamber (Transwell™, Corning/Costar). Briefly, polyvinylidene difluoride filters (PVDF) were coated with Pronectin F (Biosources, CA), a constituent of basement membrane barrier. Boyden chambers were assembled by adding VEGF to the culture media in the lower chamber (chemoattractant). Endothelial cells suspended in cultured media in the presence or the absence of the test samples were added to the upper chamber. The chambers were then incubated for a period of 4.5 hours at 37° C. At the end of the incubation period, the cells from both side of the PVDF membrane were fixed with 3.7% formaldehyde. Cells from the upper surface of the membrane were mechanically removed, and the cells remaining on the underside of the membrane were stained with crystal violet (0.5%; Sigma). Cells were then carefully rinsed and the dye fixed to the cells was quantified with a microplate reader ([…]) after its solubilization with a solution of 50% citric acid (0.1M) in water and 50% ethanol.

## L-Asp Cu L-Asp [Compound 6]
[1]
  Antimetastatic activity (% inhibition) (at 2.5 mg/kg of Cu-complex): 26.9%
C6 glioblastoma cells
  C6 glioblastoma (EC50 (mM)): Non-active
Endothelial cells
  Cell migration activity (in words): important activity
Endothelial cells; 1.25 mmole (equivalent copper), VEGF chemoattractant, 4.5 hours
  Migration % of inhibition: 82% of inhibition
Endothelial cells; copper complexes, concentration not given, VEGF, 4.5 hours
  Cell Migration (% inhibition): 82%
